According to ChEMBL document CHEMBL1148996, “6-Methoxylated and C-glycosyl flavonoids from Centaurea species” (1984):
In brackets after ≈: the same amount, converted by molar mass.

Experiments:
Type in all cases: functional
Pseudomonas aeruginosa = experiment: Antimicrobial activity against Pseudomonas aeruginosa ATCC 1539 by paper disk method
Escherichia coli = experiment: Antimicrobial activity against Escherichia coli ATCC 8739 by paper disk method
Bacillus subtilis = experiment: Antimicrobial activity against Bacillus subtilis ATCC 6633 by paper disk method
Klebsiella pneumoniae = experiment: Antimicrobial activity against Klebsiella pneumoniae UJ57 by paper disk method
Proteus vulgaris = experiment: Antimicrobial activity against Proteus vulgaris ATCC 8427 by paper disk method

Structure (SMILES) | MIC (Pseudomonas aeruginosa) [µg/mL] | MIC (Escherichia coli) [µg/mL] | MIC (Bacillus subtilis) [µg/mL] | MIC (Klebsiella pneumoniae) [µg/mL] | MIC (Proteus vulgaris) [µg/mL] | MBC (Pseudomonas aeruginosa) [µg/mL] | MBC (Escherichia coli) [µg/mL] | MBC (Bacillus subtilis) [µg/mL] | MBC (Klebsiella pneumoniae) [µg/mL] | MBC (Proteus vulgaris) [µg/mL]
COc1ccc(-c2cc(=O)c3c(O)c(OC)c(OC)cc3o2)cc1OC | 125 (≈ 349 µM) | 250 (≈ 698 µM) |  |  |  | 250 (≈ 698 µM) | 500 (≈ 1400 µM) |  |  | 
COc1c(O)cc2oc(-c3ccc(O)cc3)cc(=O)c2c1O [HISPIDULIN] |  |  | 125 (≈ 416 µM) |  | 125 (≈ 416 µM) |  |  | > 250 |  | > 250

Now from value to compound, other results behind:

MIC (Pseudomonas aeruginosa) [µg/mL] | MIC (Escherichia coli) [µg/mL] | MIC (Bacillus subtilis) [µg/mL] | MIC (Klebsiella pneumoniae) [µg/mL] | MIC (Proteus vulgaris) [µg/mL] | Structure (SMILES) | MBC (Pseudomonas aeruginosa) [µg/mL] | MBC (Escherichia coli) [µg/mL] | MBC (Bacillus subtilis) [µg/mL] | MBC (Klebsiella pneumoniae) [µg/mL] | MBC (Proteus vulgaris) [µg/mL]
 | 125 (≈ 378 µM) |  |  |  | COc1cc(-c2cc(=O)c3c(O)c(OC)c(O)cc3o2)ccc1O [JACEOSIDINE] |  | 250 (≈ 757 µM) |  |  | 
110 (≈ 405 µM) | 110 (≈ 405 µM) | 110 (≈ 405 µM) | 219 (≈ 810 µM) | 54.8 (≈ 203 µM) | O=c1cc(-c2ccc(O)cc2)oc2cc(O)cc(O)c12 [APIGENIN] | 438 (≈ 1620 µM) | 438 (≈ 1620 µM) | 219 (≈ 810 µM) | 438 (≈ 1620 µM) | 438 (≈ 1620 µM)
 | 188 (≈ 545 µM) | 93.8 (≈ 272 µM) |  |  | COc1ccc(-c2cc(=O)c3c(O)c(OC)c(OC)cc3o2)cc1O [EUPATORIN] |  | > 375 | 188 (≈ 545 µM) |  | 
